This is an account of results in PubChem BioAssay (NCI).

Some test systems named below: A498 renal; A549 NSCLC; ACHN renal; MCF7 breast; OVCAR-8 ovarian; SR leukemia; TK-10 renal; U251 CNS; UACC-62 melanoma; UO-31 renal.
Holding throughout (test): inhibition of tumour cell growth, NCI panel, 48 h

Each structure is given as a SMILES string.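 Each compound was tested at five concentrations against cells in 96-well plates for 48 hours. At the GI50, growth is halved. TGI: total growth inhibition.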

In the case of `COC(=O)C1=CN(CC2=CC(=O)C(C)=CC2=O)C=C(C(=O)OC)C1c1cccc(OC)c1OC`, the GI50 in the experiment on A498 renal was 20.8 µM; in the experiment with A549 NSCLC, 13 µM; in the experiment with ACHN renal, 6.69 µM; in the experiment on MCF7 breast, 18.6 µM; with OVCAR-8 ovarian, 16.2 µM; with SR leukemia, 1.08 µM. The GI50 in the experiment on TK-10 renal was 8.35 µM; in the experiment with U251 CNS, 18.6 µM; in the experiment with UACC-62 melanoma, 13 µM; in the experiment with UO-31 renal, 12.9 µM. For the same compound, the TGI with A498 renal is 55.2 µM; in the experiment with A549 NSCLC, above 51.5 µM; in the experiment on ACHN renal it was 22.2 µM; in the experiment with MCF7 breast it was 55.2 µM; in the experiment with OVCAR-8 ovarian it was 42.8 µM; in the experiment with SR leukemia, 13.8 µM. Also, the TGI was found to be 27.1 µM in the experiment with TK-10 renal, 50.2 µM in the experiment with U251 CNS, 30.4 µM in the experiment with UACC-62 melanoma and 25.5 µM with UO-31 renal.
As for `COc1cc2c(cc1OCCCCCOc1cc(-c3ccc(F)cc3)nc(C)n1)N=C[C@@H]1CCCN1C2=O`, the GI50 in the experiment on A498 renal was above 100 µM; in the experiment with A549 NSCLC, above 41.2 µM; in the experiment on ACHN renal it was above 37.6 µM; in the experiment with MCF7 breast, above 23.6 µM; in the experiment with OVCAR-8 ovarian it was above 37.3 µM; in the experiment with TK-10 renal it was above 49.9 µM. For the same compound, the GI50 in the experiment with U251 CNS was above 34.8 µM; in the experiment on UACC-62 melanoma, above 38.1 µM; in the experiment with UO-31 renal, above 28.3 µM. Besides, the TGI in the experiment with A498 renal was above 100 µM; in the experiment with A549 NSCLC, above 66.3 µM; in the experiment on ACHN renal, above 68.6 µM; in the experiment with MCF7 breast, above 48.8 µM; in the experiment with OVCAR-8 ovarian it was above 54.7 µM; with SR leukemia, above 57.9 µM. Further, the TGI with TK-10 renal was above 75.3 µM; in the experiment on U251 CNS it was above 86.7 µM; in the experiment on UACC-62 melanoma, above 56.2 µM; in the experiment on UO-31 renal it was above 59 µM.
On to `CCOC(=O)c1sc(=S)c2c(C(=O)c3ccccc3)c(C(=O)c3ccccc3)sc2c1C(=O)OCC`, for which the GI50 in the experiment on A498 renal was 7.96 µM; with A549 NSCLC, 5.17 µM; with ACHN renal, 3 µM; with MCF7 breast it was 3.74 µM; in the experiment on OVCAR-8 ovarian, 3.44 µM; with SR leukemia, 2.58 µM. The GI50 in the experiment with TK-10 renal was 3.17 µM; with U251 CNS it was 3.49 µM; in the experiment with UACC-62 melanoma, 2.99 µM; in the experiment with UO-31 renal it was 5.12 µM. The TGI in the experiment with A498 renal is 52.2 µM; in the experiment on A549 NSCLC, above 100 µM; in the experiment on ACHN renal, 9.32 µM; in the experiment on MCF7 breast it was 26.6 µM; in the experiment on OVCAR-8 ovarian it was above 100 µM; in the experiment on SR leukemia, 5.98 µM. Besides, the TGI in the experiment with TK-10 renal was 63.5 µM; in the experiment on U251 CNS, above 100 µM; in the experiment with UACC-62 melanoma, 17.8 µM; in the experiment on UO-31 renal, above 100 µM.
For the compound `CCN(CC)c1ccc(/C=N/NC(=O)c2ccc(Nc3ccnc(C(F)(F)F)c3)cc2)c(O)c1`, the GI50 is 0.479 µM in the experiment with A498 renal; 0.439 µM in the experiment with A549 NSCLC; 0.142 µM in the experiment with ACHN renal; 0.326 µM with MCF7 breast; 0.322 µM in the experiment on OVCAR-8 ovarian; 0.0862 µM in the experiment on SR leukemia. Also, the GI50 in the experiment with TK-10 renal was 0.42 µM; with U251 CNS, 0.145 µM; with UACC-62 melanoma it was 0.229 µM; in the experiment with UO-31 renal, 0.117 µM. The TGI with A498 renal was 10.6 µM; with A549 NSCLC, above 100 µM; with ACHN renal, 2.56 µM; in the experiment on MCF7 breast it was above 100 µM; with OVCAR-8 ovarian, above 33 µM; in the experiment on SR leukemia it was 0.672 µM. Besides, the TGI in the experiment with TK-10 renal is above 100 µM; in the experiment with U251 CNS it was above 37.6 µM; in the experiment on UACC-62 melanoma, 0.898 µM; in the experiment with UO-31 renal, 1.91 µM.
As to `COC(=O)c1c2c(c(C)[n+]([O-])c1C)C(=O)C=C(NCc1ccc(Cl)cc1)C2=O`, the GI50 with A498 renal was 1.21 µM; in the experiment with A549 NSCLC, 0.543 µM; with ACHN renal it was 0.233 µM; in the experiment on MCF7 breast, 0.267 µM; with OVCAR-8 ovarian, 0.296 µM; in the experiment with SR leukemia, 0.733 µM. Also, the GI50 in the experiment with TK-10 renal was 2.95 µM; with U251 CNS, 0.598 µM; with UACC-62 melanoma, 0.046 µM; with UO-31 renal, 1.16 µM. Also, the TGI with A498 renal was determined as 2.47 µM; with A549 NSCLC, 3.05 µM; with ACHN renal, 1.91 µM; with MCF7 breast, 0.98 µM; in the experiment on OVCAR-8 ovarian, 1.44 µM; with SR leukemia, 7.91 µM. Also, the TGI with TK-10 renal turned out to be 8.2 µM; with U251 CNS it was 1.88 µM; in the experiment on UACC-62 melanoma it was 1.02 µM; in the experiment with UO-31 renal, 2.66 µM.
Consider `O=C(Nc1ccccc1Cl)c1cnc2ccc(C3CCNCC3)cn12`, for which the GI50 in the experiment on A498 renal was 1.49 µM; with A549 NSCLC, 11.5 µM; in the experiment with ACHN renal, 1.02 µM; in the experiment with MCF7 breast, above 68.9 µM; in the experiment with OVCAR-8 ovarian, 13.5 µM; in the experiment with SR leukemia, 37.2 µM. The GI50 in the experiment on TK-10 renal was 1.92 µM; with U251 CNS it was 51.7 µM; with UACC-62 melanoma it was 14.2 µM; with UO-31 renal, 2.13 µM. For the same compound, the TGI in the experiment with A498 renal was above 45.5 µM; in the experiment on A549 NSCLC it was above 100 µM; in the experiment with ACHN renal, above 46.5 µM; in the experiment with MCF7 breast, above 100 µM; in the experiment on OVCAR-8 ovarian it was above 100 µM; with SR leukemia, above 100 µM. The TGI with TK-10 renal was 12.2 µM; with U251 CNS, above 100 µM; with UACC-62 melanoma it was 56.7 µM; in the experiment with UO-31 renal, above 100 µM.
For `COc1ccc(C2=NNC(c3ccc(-c4ccc(OC)cc4[N+](=O)[O-])o3)C2)cc1` (centres undefined), the GI50 in the experiment on A498 renal was 31.6 µM; in the experiment on A549 NSCLC, 39.5 µM; with ACHN renal, 42.2 µM; in the experiment with MCF7 breast, 20 µM; in the experiment on OVCAR-8 ovarian, 21.2 µM; in the experiment on SR leukemia, 20.2 µM. Further, the GI50 was 14.8 µM in the experiment on TK-10 renal, 19.4 µM in the experiment on U251 CNS, 0.691 µM with UACC-62 melanoma and above 100 µM in the experiment on UO-31 renal. Besides, the TGI was above 100 µM in the experiment on A498 renal; above 100 µM in the experiment with A549 NSCLC; above 100 µM with ACHN renal; above 100 µM in the experiment on MCF7 breast; 75.5 µM in the experiment on OVCAR-8 ovarian; above 100 µM in the experiment with SR leukemia. The TGI in the experiment on TK-10 renal is 46.3 µM; in the experiment on U251 CNS, 50.3 µM; in the experiment with UACC-62 melanoma it was 19.4 µM; in the experiment on UO-31 renal, above 100 µM.
